Tests used:
[1] = test system: Brassica rapa subsp. oleifera; assay: Growth inhibition of Brassica rapa subsp. oleifera assessed as chlorophyll b level at 3 x 10^-4 M after 7 days; format: functional; design: scale not given: the % may be the effect or the level left
[2] = test system: Brassica rapa subsp. oleifera; assay: Growth inhibition of Brassica rapa subsp. oleifera assessed as chlorophyll b level at 1 x 10^-4 M after 7 days; format: functional; design: scale not given: the % may be the effect or the level left
[3] = test system: Brassica rapa subsp. oleifera; assay: Growth inhibition of Brassica rapa subsp. oleifera assessed as chlorophyll a level at 3 x 10^-5 M after 7 days; format: functional; design: scale not given: the % may be the effect or the level left
[4] = test system: Brassica rapa subsp. oleifera; assay: Growth inhibition of Brassica rapa subsp. oleifera assessed as chlorophyll a level at 5 x 10^-5 M after 7 days; format: functional; design: scale not given: the % may be the effect or the level left
[5] = Toxicity in Mus musculus ddY (mouse) assessed as mortality at 300 mg/kg, ip after 4 days; format: organism-based; design: dose 300 mg/kg, route intraperitoneal; details: in vivo
[6] = Toxicity in Mus musculus ddY (mouse) assessed as mortality at 275 mg/kg, ip after 4 days; format: organism-based; design: dose 275 mg/kg, route intraperitoneal; details: in vivo
[7] = Toxicity in Mus musculus ddY (mouse) assessed as mortality at 325 mg/kg, ip after 4 days; format: organism-based; design: dose 325 mg/kg, route intraperitoneal; details: in vivo
[8] = Toxicity in ip dosed Mus musculus ddY (mouse) assessed as mortality after 1 to 7 days; format: organism-based; details: in vivo
[9] = test system: Brassica rapa subsp. oleifera; assay: Growth inhibition of Brassica rapa subsp. oleifera assessed as total chlorophyll level at 5 x 10^-5 M after 7 days; format: functional; design: scale not given: the % may be the effect or the level left
[10] = test system: Brassica rapa subsp. oleifera; assay: Growth inhibition of Brassica rapa subsp. oleifera assessed as total chlorophyll level at 3 x 10^-5 M after 7 days; format: functional; design: scale not given: the % may be the effect or the level left
[11] = test system: Brassica rapa subsp. oleifera; assay: Growth inhibition of Brassica rapa subsp. oleifera assessed as total chlorophyll level at 1 x 10^-4 M after 7 days; format: functional; design: scale not given: the % may be the effect or the level left
[12] = test system: Brassica rapa subsp. oleifera; assay: Growth inhibition of Brassica rapa subsp. oleifera assessed as total chlorophyll level at 3 x 10^-4 M after 7 days; format: functional; design: scale not given: the % may be the effect or the level left
[13] = test system: Brassica rapa subsp. oleifera; assay: Growth inhibition of Brassica rapa subsp. oleifera assessed as root growth at 3 x 10^-5 M after 7 days; format: functional
[14] = test system: Brassica rapa subsp. oleifera; assay: Growth inhibition of Brassica rapa subsp. oleifera assessed as root growth at 5 x 10^-5 M after 7 days; format: functional
[15] = test system: Brassica rapa subsp. oleifera; assay: Growth inhibition of Brassica rapa subsp. oleifera assessed as root growth at 1 x 10^-4 M after 7 days; format: functional
[16] = test system: Brassica rapa subsp. oleifera; assay: Growth inhibition of Brassica rapa subsp. oleifera assessed as root growth at 3 x 10^-4 M after 7 days; format: functional
[17] = Toxicity in Mus musculus ddY (mouse) assessed as mortality at 225 mg/kg, ip after 3 days; format: organism-based; design: dose 225 mg/kg, route intraperitoneal; details: in vivo
[18] = Toxicity in Mus musculus ddY (mouse) assessed as mortality at 200 mg/kg, ip after 3 days; format: organism-based; design: dose 200 mg/kg, route intraperitoneal; details: in vivo
[19] = Toxicity in Mus musculus ddY (mouse) assessed as mortality at 250 mg/kg, ip after 3 days; format: organism-based; design: dose 250 mg/kg, route intraperitoneal; details: in vivo
[20] = Toxicity in Mus musculus ddY (mouse) assessed as mortality at 200 mg/kg, ip after 2 days; format: organism-based; design: dose 200 mg/kg, route intraperitoneal; details: in vivo
[21] = Toxicity in Mus musculus ddY (mouse) assessed as mortality at 300 mg/kg, ip after 3 days; format: organism-based; design: dose 300 mg/kg, route intraperitoneal; details: in vivo
[22] = Toxicity in Mus musculus ddY (mouse) assessed as mortality at 275 mg/kg, ip after 3 days; format: organism-based; design: dose 275 mg/kg, route intraperitoneal; details: in vivo
[23] = Toxicity in Mus musculus ddY (mouse) assessed as mortality at 325 mg/kg, ip after 3 days; format: organism-based; design: dose 325 mg/kg, route intraperitoneal; details: in vivo
[24] = Toxicity in Mus musculus ddY (mouse) assessed as mortality at 225 mg/kg, ip after 2 days; format: organism-based; design: dose 225 mg/kg, route intraperitoneal; details: in vivo
[25] = Toxicity in Mus musculus ddY (mouse) assessed as mortality at 250 mg/kg, ip after 2 days; format: organism-based; design: dose 250 mg/kg, route intraperitoneal; details: in vivo
[26] = Toxicity in Mus musculus ddY (mouse) assessed as mortality at 300 mg/kg, ip after 2 days; format: organism-based; design: dose 300 mg/kg, route intraperitoneal; details: in vivo
[27] = Toxicity in Mus musculus ddY (mouse) assessed as mortality at 275 mg/kg, ip after 2 days; format: organism-based; design: dose 275 mg/kg, route intraperitoneal; details: in vivo
[28] = Toxicity in Mus musculus ddY (mouse) assessed as mortality at 325 mg/kg, ip after 2 days; format: organism-based; design: dose 325 mg/kg, route intraperitoneal; details: in vivo
[29] = Toxicity in Mus musculus ddY (mouse) assessed as mortality at 225 mg/kg, ip after 1 day; format: organism-based; design: dose 225 mg/kg, route intraperitoneal; details: in vivo

CN1C(=O)CSC1=S [3-METHYL-RHODANINE]
Activity [1]: 3.53%
Activity [2]: 4.85%
Activity [3]: 15.09%
Activity [4]: 14.2%
mortality at 96 h [5]: 80%
mortality at 96 h [6]: 80%
mortality at 96 h [7]: 100%
LD50 [8]: 255 mg/kg
Activity [9]: 18.62%
Activity [10]: 19.75%
Activity [11]: 20.44%
Activity [12]: 14.29%
Root length [13]: 56.2 mm
Root length [14]: 53.9 mm
Activity [15]: 52.7 mm
Activity [16]: 37.5 mm
mortality at 72 h [17]: 20%
mortality at 72 h [18]: 0%
mortality at 72 h [19]: 40%
mortality at 48 h [20]: 0%
mortality at 72 h [21]: 80%
mortality at 72 h [22]: 80%
mortality at 72 h [23]: 100%
mortality at 48 h [24]: 20%
mortality at 48 h [25]: 20%
mortality at 48 h [26]: 80%
mortality at 48 h [27]: 80%
mortality at 48 h [28]: 60%
mortality at 24 h [29]: 20%
